Read-outs that look alike come from different tables or passages of the source. Numbered stars: 1 amine (or outer) side, 2 acyl side, 3 side chain; on linkers, the order of the positions; unused ones are H or OH. Bridge positions count the residues as written; N and C are the ends. Square brackets hold non-standard residues; d marks the D form. Peptide text beside a SMILES is read from it. Phe(4-guanidino) = N=C(N)Nc1ccc(C[C@H](N)C(=O)O)cc1; 2Nal = N[C@@H](Cc1ccc2ccccc2c1)C(=O)O; TBMB = c1c(C[*:1])cc(C[*:3])cc1C[*:2]; NMeR = CN[C@@H](CCCNC(=N)N)C(=O)O; Hyp = O=C(O)[C@@H]1C[C@@H](O)CN1; hArg = N=C(N)NCCCC[C@H](N)C(=O)O; Tic = O=C(O)[C@@H]1Cc2ccccc2CN1; Pen = CC(C)(S)[C@H](N)C(=O)O; Aze = O=C(O)[C@@H]1CCN1; Abu = CC[C@H](N)C(=O)O; Aib = CC(C)(N)C(=O)O; βAla = NCCC(=O)O
Legend:
[1] = target: T1, human plasma Kallikrein (Homo sapiens, UniProt P03952); experiment: Functional enzyme inhibition assay, fluorogenic substrate Z-PheArg-AMC; type: biochemical
T1 construct: purchased Stratech, UK
Method: Peptides were dissolved as the TFA-salts in their powder form, and stock solutions were usually prepared in water. All solutions were centrifuged and filtered ([…] syringe filters) prior absorption measurement at 280 nm. […] For peptides containing non-natural amino acids with suspected chromophoric properties (i.e. NorHar, 4PhenylPro, 3PaI, 4PaI, Tic, 4GuanPhe, 4,4-BPAI, 3,3-DPA, 1NAI, 2NAI, 4BenzylPro, Ind) concentrations were determined by weighing the powder and dissolving the peptide in a defined quantity of water.

[2] = Plasma stability profiling method 1 (35% plasma, MALDI-TOF, qualitative); type: in vitro ADME, rat; conditions: for Observable in rat plasma, for days: 35% rat plasma, 37 deg C, method 1, comparative estimate; for rat plasma stability: method 1
Outline: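 Peptide at 200 uM incubated at 37 deg C in 35% rat or human citrated plasma with 1×PBS, sampled at 0, 3, 24 h then daily up to 10 days. Parent mass tracked by MALDI-TOF at similar laser intensity; value is time until parent no longer detectable, qualitative only.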

[3] = Plasma stability method 3 (95% plasma, quantitative LC/MS, Biofocus); type: in vitro ADME, rat
Method: To obtain plasma stability quantitatively, peptide stock solutions (1 mM in DMSO) were shipped to Biofocus, UK, who performed the analysis. Peptides were diluted to 100 uM with water, and diluted 1:20 in plasma (5 uM final concentration, with the plasma at 95%), sampled as appropriate, precipitated as above, and quantified using a Waters Xevo TQ-MS.

[4] = Ki (nM) (human kallikrein), Ac-06-34-18(TMB)-NH2 series

T1 sequence (P03952 20-638): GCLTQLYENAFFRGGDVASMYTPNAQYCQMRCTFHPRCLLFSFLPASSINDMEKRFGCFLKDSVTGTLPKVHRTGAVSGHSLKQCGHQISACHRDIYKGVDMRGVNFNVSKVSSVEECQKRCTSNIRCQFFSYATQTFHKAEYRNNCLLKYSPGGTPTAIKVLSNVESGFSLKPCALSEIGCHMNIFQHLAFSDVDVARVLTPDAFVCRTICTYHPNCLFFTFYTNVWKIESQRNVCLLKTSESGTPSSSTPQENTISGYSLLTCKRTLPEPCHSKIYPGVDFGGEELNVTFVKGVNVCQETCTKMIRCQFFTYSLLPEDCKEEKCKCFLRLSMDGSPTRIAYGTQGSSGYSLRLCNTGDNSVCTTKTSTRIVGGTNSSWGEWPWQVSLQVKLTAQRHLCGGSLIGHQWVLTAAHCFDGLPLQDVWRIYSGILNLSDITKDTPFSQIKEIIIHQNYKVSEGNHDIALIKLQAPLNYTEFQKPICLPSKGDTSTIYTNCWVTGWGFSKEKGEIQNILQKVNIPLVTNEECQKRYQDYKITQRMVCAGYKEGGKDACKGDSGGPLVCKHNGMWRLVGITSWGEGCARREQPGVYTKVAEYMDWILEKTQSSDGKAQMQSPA

Row | SMILES | Observable in rat plasma, for days [2] | Ki [1, 4] | other results
1 | CC(=O)N[C@H]1CSCc2cc3cc(c2)CSC[C@H](NC(=O)[C@H](CCCNC(=N)N)NC(=O)[C@H](C)NC(=O)[C@@H]2CCN2C(=O)[C@H](Cc2c[nH]c4ccccc24)NC(=O)[C@H](CO)NC1=O)C(=O)N[C@@H](CC(C)C)C(=O)N[C@@H](Cc1c[nH]cn1)C(=O)N[C@@H](CCC(N)=O)C(=O)N[C@@H](CC(=O)O)C(=O)N[C@@H](CC(C)C)C(=O)N[C@H](C(N)=O)CSC3 [Ac-(06-34-18) Aze3] (Ac-CSW[Aze]ARCLHQDLC-NH2; linker 1-7-13 via TBMB) | 2 days | – | affinity surpassing that of wildtype by a factor ([1]; vs Ac-06-34-18(TMB)-NH2): 3
2 | CC(=O)N[C@H]1CSCc2cc3cc(c2)CSC[C@H](NC(=O)[C@H](CCCNC(=N)N)N(C)C(=O)[C@H](C)NC(=O)[C@@H]2CCCN2C(=O)[C@H](Cc2c[nH]c4ccccc24)NC(=O)[C@H](CO)NC1=O)C(=O)N[C@@H](CC(C)C)C(=O)N[C@@H](Cc1c[nH]cn1)C(=O)N[C@@H](CCC(N)=O)C(=O)N[C@@H](CC(=O)O)C(=O)N[C@@H](CC(C)C)C(=O)N[C@H](C(N)=O)CSC3 [Ac-(06-34-18) NMeArg5] | – | – | loss in potency / reduction in affinity compared to wildtype ([1]; vs Ac-06-34-18(TMB)-NH2): 20 fold; rat plasma stability [2]: exceeds the assay time
3 | CC(=O)N[C@H]1CSCc2cc3cc(c2)CSC[C@H](NC(=O)[C@H](CCCNC(=N)N)NC(=O)[C@H](C)NC(=O)C(C)(C)NC(=O)[C@H](Cc2c[nH]c4ccccc24)NC(=O)[C@H](CO)NC1=O)C(=O)N[C@@H](CC(C)C)C(=O)N[C@@H](Cc1c[nH]cn1)C(=O)N[C@@H](CCC(N)=O)C(=O)N[C@@H](CC(=O)O)C(=O)N[C@@H](CC(C)C)C(=O)N[C@H](C(N)=O)CSC3 [Ac-(06-34-18) Aib3] (Ac-CSW[Aib]ARCLHQDLC-NH2; linker 1-7-13 via TBMB) | 2 days | 1.2 nM | –
4 | CC(=O)N[C@H]1CSCc2cc3cc(c2)CSC[C@H](NC(=O)[C@H](CCCNC(=N)N)N(C)C(=O)[C@H](Cc2ccc(O)cc2)NC(=O)[C@@H]2CCCN2C(=O)[C@H](Cc2ccccc2)NC(=O)[C@H](CO)NC1=O)C(=O)N[C@@H](CC(C)C)C(=O)N[C@@H](Cc1c[nH]cn1)C(=O)N[C@@H](CCC(N)=O)C(=O)N[C@@H](CC(=O)O)C(=O)N[C@@H](CC(C)C)C(=O)N[C@H](C(N)=O)CSC3 [Ac-(06-34-18) Phe2 Tyr4 NMeArg5] (Ac-CSFPY[NMeR]CLHQDLC-NH2; linker 1-7-13 via TBMB) | >10 days | 3.56 nM | t1/2 (hrs) in rat plasma ([3]; rat, plasma, 5 uM): >20 h
5 | CC(=O)N[C@H]1CSCc2cc3cc(c2)CSC(C)(C)[C@H](NC(=O)[C@H](CCCNC(=N)N)NC(=O)[C@H](C)NC(=O)[C@@H]2CCCN2C(=O)[C@H](Cc2c[nH]c4ccccc24)NC(=O)[C@H](CO)NC1=O)C(=O)N[C@@H](CC(C)C)C(=O)N[C@@H](Cc1c[nH]cn1)C(=O)N[C@@H](CCC(N)=O)C(=O)N[C@@H](CC(=O)O)C(=O)N[C@@H](CC(C)C)C(=O)N[C@H](C(N)=O)CSC3 [Ac-(06-34-18) Cys2ToPen2] (Ac-CSWPAR[Pen]LHQDLC-NH2; linker 1-7-13 via TBMB) | 5 days | – | potency against human plasma Kallikrein compared to parent [1]: potency dropped significantly; rat plasma stability [2]: slightly enhanced
6 | CC(=O)N[C@H]1CSCc2cc3cc(c2)CSC[C@H](NC(=O)[C@H](CCCNC(=N)N)NC(=O)[C@H](C)NC(=O)[C@@H]2Cc4ccccc4CN2C(=O)[C@H](Cc2c[nH]c4ccccc24)NC(=O)[C@H](CO)NC1=O)C(=O)N[C@@H](CC(C)C)C(=O)N[C@@H](Cc1c[nH]cn1)C(=O)N[C@@H](CCC(N)=O)C(=O)N[C@@H](CC(=O)O)C(=O)N[C@@H](CC(C)C)C(=O)N[C@H](C(N)=O)CSC3 [Ac-(06-34-18) Tic3] (Ac-CSW[Tic]ARCLHQDLC-NH2; linker 1-7-13 via TBMB) | 2 days | 13.5 nM | –
7 | CC[C@@H]1NC(=O)[C@@H]2CCCN2C(=O)[C@H](Cc2c[nH]c3ccccc23)NC(=O)[C@H](CO)NC(=O)[C@@H](NC(C)=O)CSCc2cc3cc(c2)CSC[C@H](NC(=O)[C@H](CCCNC(=N)N)NC1=O)C(=O)N[C@@H](CC(C)C)C(=O)N[C@@H](Cc1c[nH]cn1)C(=O)N[C@@H](CCC(N)=O)C(=O)N[C@@H](CC(=O)O)C(=O)N[C@@H](CC(C)C)C(=O)N[C@H](C(N)=O)CSC3 [Ac-(06-34-18) Aba4] (Ac-CSWP[Abu]RCLHQDLC-NH2; linker 1-7-13 via TBMB) | 2 days | 0.07 nM | –
8 | CC(=O)N[C@H]1CSCc2cc3cc(c2)CSC[C@H](NC(=O)[C@H](CCCNC(=N)N)NC(=O)[C@H](C)NC(=O)[C@@H]2CCCN2C(=O)[C@H](Cc2c[nH]c4ccccc24)NC(=O)[C@H](CO)NC1=O)C(=O)N[C@@H](CC(C)C)C(=O)N[C@@H](Cc1c[nH]cn1)C(=O)N[C@@H](CCC(N)=O)C(=O)N[C@@H](CC(=O)O)C(=O)N[C@@H](CC(C)C)C(=O)N[C@H](C(N)=O)CSC3 [Ac-(06-34-18) wildtype] | – | – | Observable in rat plasma, for days ([2]; listed as Ac-06-34-18(TMB)-NH2): about 2 days; t1/2 (hrs) in rat plasma ([3]; method 3, quantitative, listed as Ac-06-34-18(TMB)-NH2): about 2 hrs
9 | CC(=O)N[C@H]1CSCc2cc3cc(c2)CSC[C@H](NC(=O)[C@H](CCCNC(=N)N)NC(=O)CCNC(=O)[C@@H]2CCCN2C(=O)[C@H](Cc2c[nH]c4ccccc24)NC(=O)[C@H](CO)NC1=O)C(=O)N[C@@H](CC(C)C)C(=O)N[C@@H](Cc1c[nH]cn1)C(=O)N[C@@H](CCC(N)=O)C(=O)N[C@@H](CC(=O)O)C(=O)N[C@@H](CC(C)C)C(=O)N[C@H](C(N)=O)CSC3 [Ac-(06-34-18) β-Ala4] (Ac-CSWP[βAla]RCLHQDLC-NH2; linker 1-7-13 via TBMB) | 10 days | – | Ki ([1]; text b279, read-out: affinity to Kallikrein): ~20000 nM
10 | CC(=O)N[C@H]1CSCc2cc3cc(c2)CSC[C@H](NC(=O)[C@H](CCCNC(=N)N)NC(=O)[C@H](C)NC(=O)[C@@H]2C[C@@H](O)CN2C(=O)[C@H](Cc2c[nH]c4ccccc24)NC(=O)[C@H](CO)NC1=O)C(=O)N[C@@H](CC(C)C)C(=O)N[C@@H](Cc1c[nH]cn1)C(=O)N[C@@H](CCC(N)=O)C(=O)N[C@@H](CC(=O)O)C(=O)N[C@@H](CC(C)C)C(=O)N[C@H](C(N)=O)CSC3 [Ac-(06-34-18) HyP3] (Ac-CSW[Hyp]ARCLHQDLC-NH2; linker 1-7-13 via TBMB) | 2 days | 0.41 nM | –
11 | CC(=O)N[C@H]1CSCc2cc3cc(c2)CSC[C@H](NC(=O)[C@H](CCCCNC(=N)N)NC(=O)[C@H](Cc2ccc(O)cc2)NC(=O)[C@@H]2CCCN2C(=O)[C@H](Cc2ccccc2)NC(=O)[C@H](CO)NC1=O)C(=O)N[C@@H](CC(C)C)C(=O)N[C@@H](Cc1c[nH]cn1)C(=O)N[C@@H](CCC(N)=O)C(=O)N[C@@H](CC(=O)O)C(=O)N[C@@H](CC(C)C)C(=O)N[C@H](C(N)=O)CSC3 [Ac-(06-34-18) Phe2 Tyr4 HomoArg5] (Ac-CSFPY[hArg]CLHQDLC-NH2; linker 1-7-13 via TBMB) | >10 days | – | t1/2 (hrs) in rat plasma ([3]; rat, plasma, 5 uM): 12.2 h; rat plasma stability enhanced by a factor ([3]; vs parent Phe2Tyr4 peptide): 13
12 | CC(=O)N[C@H]1CSCc2cc3cc(c2)CSC[C@H](NC(=O)[C@H](CCCNC(=N)N)NC(=O)[C@H](C)NC(=O)[C@@H]2CCCN2C(=O)[C@H](Cc2ccccc2)NC(=O)[C@H](CO)NC1=O)C(=O)N[C@@H](CC(C)C)C(=O)N[C@@H](Cc1c[nH]cn1)C(=O)N[C@@H](CCC(N)=O)C(=O)N[C@@H](CC(=O)O)C(=O)N[C@@H](CC(C)C)C(=O)N[C@H](C(N)=O)CSC3 [Ac-(06-34-18) FPAR] (Ac-CSFPARCLHQDLC-NH2; linker 1-7-13 via TBMB) | 2 days | – | loss in potency / reduction in affinity compared to wildtype ([1]; vs Ac-06-34-18(TMB)-NH2): 40 fold
13 | CC(=O)N[C@H]1CSCc2cc3cc(c2)CSC[C@H](NC(=O)[C@H](CCCNC(=N)N)NC(=O)[C@H](Cc2ccc(O)cc2)NC(=O)[C@@H]2CCCN2C(=O)[C@H](Cc2c[nH]c4ccccc24)NC(=O)[C@H](CO)NC1=O)C(=O)N[C@@H](CC(C)C)C(=O)N[C@@H](Cc1c[nH]cn1)C(=O)N[C@@H](CCC(N)=O)C(=O)N[C@@H](CC(=O)O)C(=O)N[C@@H](CC(C)C)C(=O)N[C@H](C(N)=O)CSC3 [Ac-(06-34-18) WPYR] (Ac-CSWPYRCLHQDLC-NH2; linker 1-7-13 via TBMB) | 2 days | 0.41 nM | –
14 | CC(=O)N[C@H]1CSCc2cc3cc(c2)CSC[C@H](NC(=O)[C@H](Cc2ccc(NC(=N)N)cc2)NC(=O)[C@H](C)NC(=O)[C@@H]2CCN2C(=O)[C@H](Cc2c[nH]c4ccccc24)NC(=O)[C@H](CO)NC1=O)C(=O)N[C@@H](CC(C)C)C(=O)N[C@@H](Cc1c[nH]cn1)C(=O)N[C@@H](CCC(N)=O)C(=O)N[C@@H](CC(=O)O)C(=O)N[C@@H](CC(C)C)C(=O)N[C@H](C(N)=O)CSC3 [Ac-(06-34-18) Aze3 4GuanPhe5] (Ac-CSW[Aze]A[Phe(4-guanidino)]CLHQDLC-NH2; linker 1-7-13 via TBMB) | >10 days | 0.17 nM | –
15 | CC(=O)N[C@H]1CSCc2cc3cc(c2)CSC[C@H](NC(=O)[C@H](CCCNC(=N)N)NC(=O)[C@H](C)NC(=O)[C@@H]2CCCN2C(=O)[C@H](Cc2ccc4ccccc4c2)NC(=O)[C@H](CO)NC1=O)C(=O)N[C@@H](CC(C)C)C(=O)N[C@@H](Cc1c[nH]cn1)C(=O)N[C@@H](CCC(N)=O)C(=O)N[C@@H](CC(=O)O)C(=O)N[C@@H](CC(C)C)C(=O)N[C@H](C(N)=O)CSC3 [Ac-(06-34-18) 2NAL2] (Ac-CS[2Nal]PARCLHQDLC-NH2; linker 1-7-13 via TBMB) | 2 days | 0.5 nM | –
